Measurements: ChEMBL document CHEMBL5252648, “Design, synthesis and bioactivity evaluation of a series of quinazolinone derivatives as potent PI3Kγ antagonist” (Bioorg Med Chem, 2023)
Calls of active or inactive are those of the source. No cut-off for these calls is given here.

Legend:
Jurkat [1] = assay: Induction of apoptosis against human Jurkat cells assessed as late apoptotic cells at 10 uM measured for 24 hrs by Annexin V-FITC/propidium iodide staining based flow cytometry (reference value: 0.00%); type: functional
Jurkat [2] = assay: Upregulation of phosphorylated ERK1/2 protein expression in human Jurkat cells at 10 uM measured for 3 hrs; type: functional, cell-based
Jurkat [3] = assay: Induction of apoptosis against human Jurkat cells assessed as late apoptotic cells at 0.1 uM measured for 24 hrs by Annexin V-FITC/propidium iodide staining based flow cytometry (reference value: 0.00%); type: functional
Jurkat [4] = assay: Induction of apoptosis against human Jurkat cells assessed as late apoptotic cells at 1 uM measured for 24 hrs by Annexin V-FITC/propidium iodide staining based flow cytometry (reference value: 0.00%); type: functional
Jurkat [5] = assay: Upregulation of phosphorylated p38 protein expression in human Jurkat cells measured for 3 hrs; type: functional, cell-based; details: dose 0.1-10 µM
THP-1 [6] = assay: Induction of apoptosis against human THP-1 cells assessed as necrotic cells at 1 uM measured for 24 hrs by Annexin V-FITC/propidium iodide staining based flow cytometry (reference value: 0.316%); type: functional
THP-1 [7] = assay: Induction of apoptosis against human THP-1 cells assessed as early apoptotic cells at 10 uM measured for 24 hrs by Annexin V-FITC/propidium iodide staining based flow cytometry (reference value: 10.3%); type: functional
THP-1 [8] = assay: Cytotoxicity against human THP-1 cells assessed as reduction in cell viability incubated for 24 hrs by CCK-8 assay; type: functional, cell-based; details: THP-1, 24 h
THP-1 [9] = assay: Induction of apoptosis against human THP-1 cells assessed as viable cells at 0.1 uM measured for 24 hrs by Annexin V-FITC/propidium iodide staining based flow cytometry (reference value: 85.6%); type: functional; details: read-out: Activity
THP-1 [10] = assay: Induction of apoptosis against human THP-1 cells assessed as necrotic cells at 0.1 uM measured for 24 hrs by Annexin V-FITC/propidium iodide staining based flow cytometry (reference value: 0.316%); type: functional
RAW264.7 = assay: Inhibition of AKT phosphorylation in mouse RAW264.7 cells incubated for 1 to 12 hrs by Western blot analysis relative to control; type: cell-based; details: dose 0.1-10 µM, time 1-12 hrs
Jurkat [11] = assay: Induction of apoptosis against human Jurkat cells assessed as viable cells at 0.1 uM measured for 24 hrs by Annexin V-FITC/propidium iodide staining based flow cytometry (reference value: 94.2 %); type: functional; details: read-out: Activity
[12] = biological target: Serine/threonine-protein kinase AKT (Homo sapiens) (UniProt P31751+Q9Y243+P31749); assay: Inhibition of AKT phosphorylation in human Jurkat cells incubated for 1 to 12 hrs by Western blot analysis relative to control; type: cell-based; details: dose 0.1-10 µM, time 1-12 hrs
Sequence of Serine/threonine-protein kinase AKT (Homo sapiens) (P31749 whole entry, looked up, canonical isoform): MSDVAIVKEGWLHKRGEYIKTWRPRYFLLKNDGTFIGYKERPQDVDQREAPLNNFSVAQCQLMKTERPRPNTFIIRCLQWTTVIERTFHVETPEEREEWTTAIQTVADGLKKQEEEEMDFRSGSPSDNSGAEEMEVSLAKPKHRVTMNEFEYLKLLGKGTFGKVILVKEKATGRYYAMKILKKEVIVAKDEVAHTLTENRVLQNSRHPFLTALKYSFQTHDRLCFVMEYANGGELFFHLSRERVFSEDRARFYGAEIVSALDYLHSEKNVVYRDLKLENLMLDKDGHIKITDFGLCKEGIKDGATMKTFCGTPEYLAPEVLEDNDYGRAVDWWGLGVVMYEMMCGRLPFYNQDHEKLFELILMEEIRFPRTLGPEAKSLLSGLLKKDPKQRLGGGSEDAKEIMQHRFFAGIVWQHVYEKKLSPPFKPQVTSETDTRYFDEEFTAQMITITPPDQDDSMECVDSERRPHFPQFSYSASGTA
Sequence of Serine/threonine-protein kinase AKT (Homo sapiens) (P31751 whole entry, looked up, canonical isoform): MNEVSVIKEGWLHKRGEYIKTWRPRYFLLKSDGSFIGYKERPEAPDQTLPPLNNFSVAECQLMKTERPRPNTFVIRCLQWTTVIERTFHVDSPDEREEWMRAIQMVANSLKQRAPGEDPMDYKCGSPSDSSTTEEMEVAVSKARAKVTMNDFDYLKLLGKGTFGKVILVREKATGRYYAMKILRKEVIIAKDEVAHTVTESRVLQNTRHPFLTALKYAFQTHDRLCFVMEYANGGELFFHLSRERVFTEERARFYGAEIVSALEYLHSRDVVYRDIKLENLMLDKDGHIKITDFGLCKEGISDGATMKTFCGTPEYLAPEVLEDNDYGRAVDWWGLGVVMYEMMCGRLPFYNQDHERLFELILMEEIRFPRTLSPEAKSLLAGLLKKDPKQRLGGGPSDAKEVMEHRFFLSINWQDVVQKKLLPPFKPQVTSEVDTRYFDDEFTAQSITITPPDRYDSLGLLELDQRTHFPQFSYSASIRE
Sequence of Serine/threonine-protein kinase AKT (Homo sapiens) (Q9Y243 whole entry, looked up, canonical isoform): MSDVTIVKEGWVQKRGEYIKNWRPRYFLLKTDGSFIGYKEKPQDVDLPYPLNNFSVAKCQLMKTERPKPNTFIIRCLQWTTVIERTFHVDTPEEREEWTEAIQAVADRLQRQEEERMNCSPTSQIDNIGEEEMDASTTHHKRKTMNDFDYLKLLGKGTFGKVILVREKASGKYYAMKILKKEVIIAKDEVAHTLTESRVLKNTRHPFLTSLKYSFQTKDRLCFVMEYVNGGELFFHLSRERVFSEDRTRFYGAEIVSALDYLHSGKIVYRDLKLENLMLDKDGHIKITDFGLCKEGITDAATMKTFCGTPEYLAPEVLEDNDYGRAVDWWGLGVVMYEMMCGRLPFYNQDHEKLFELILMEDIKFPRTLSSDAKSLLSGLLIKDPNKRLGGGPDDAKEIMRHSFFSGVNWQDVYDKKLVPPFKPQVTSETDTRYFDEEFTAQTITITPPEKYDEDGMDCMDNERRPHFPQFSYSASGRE

[13] = biological target: Phosphatidylinositol 4,5-bisphosphate 3-kinase catalytic subunit beta isoform (Homo sapiens, UniProt P42338); assay: Antagonist activity at PI3Kbeta (unknown origin) using PIP2 as substrate in presence of ATP incubated for 30 to 60 mins by ADP-glo based luminescence assay
Sequence of Phosphatidylinositol 4,5-bisphosphate 3-kinase catalytic subunit beta isoform (P42338 whole entry, canonical isoform): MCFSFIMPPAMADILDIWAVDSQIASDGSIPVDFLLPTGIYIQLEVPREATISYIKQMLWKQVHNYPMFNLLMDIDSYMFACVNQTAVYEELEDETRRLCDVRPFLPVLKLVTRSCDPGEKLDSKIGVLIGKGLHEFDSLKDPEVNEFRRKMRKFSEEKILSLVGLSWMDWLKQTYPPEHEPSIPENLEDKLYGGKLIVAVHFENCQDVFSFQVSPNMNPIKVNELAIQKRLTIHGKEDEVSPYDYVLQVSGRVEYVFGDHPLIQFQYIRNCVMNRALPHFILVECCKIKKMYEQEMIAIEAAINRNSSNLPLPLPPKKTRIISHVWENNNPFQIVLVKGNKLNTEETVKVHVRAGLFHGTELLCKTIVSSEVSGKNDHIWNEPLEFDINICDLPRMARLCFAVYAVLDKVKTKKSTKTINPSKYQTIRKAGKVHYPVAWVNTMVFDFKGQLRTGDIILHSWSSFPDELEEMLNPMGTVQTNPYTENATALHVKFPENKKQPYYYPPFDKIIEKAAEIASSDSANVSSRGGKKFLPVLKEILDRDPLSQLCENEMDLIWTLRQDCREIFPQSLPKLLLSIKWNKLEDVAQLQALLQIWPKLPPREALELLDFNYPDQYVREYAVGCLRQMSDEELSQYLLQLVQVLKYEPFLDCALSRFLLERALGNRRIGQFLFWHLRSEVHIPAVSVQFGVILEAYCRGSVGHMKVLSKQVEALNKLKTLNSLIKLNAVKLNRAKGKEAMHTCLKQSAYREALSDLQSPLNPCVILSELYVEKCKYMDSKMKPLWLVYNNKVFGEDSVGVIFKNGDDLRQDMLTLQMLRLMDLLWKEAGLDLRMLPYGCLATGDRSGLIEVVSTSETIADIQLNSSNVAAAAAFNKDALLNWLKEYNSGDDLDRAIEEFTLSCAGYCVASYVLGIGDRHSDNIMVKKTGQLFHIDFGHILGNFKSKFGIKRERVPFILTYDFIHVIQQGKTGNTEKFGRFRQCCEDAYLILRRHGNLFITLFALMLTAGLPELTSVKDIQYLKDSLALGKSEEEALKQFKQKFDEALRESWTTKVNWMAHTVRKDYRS

T47D = assay: Cytotoxicity against human T47D cells assessed as reduction in cell viability incubated for 24 hrs by CCK-8 assay; type: functional, cell-based
Jurkat [14] = assay: Cytotoxicity against human Jurkat cells assessed as reduction in cell viability incubated for 24 hrs by CCK-8 assay; type: functional, cell-based
THP-1 [15] = assay: Induction of apoptosis against human THP-1 cells assessed as necrotic cells at 10 uM measured for 24 hrs by Annexin V-FITC/propidium iodide staining based flow cytometry (reference value: 0.316%); type: functional
Jurkat [16] = assay: Upregulation of phosphorylated p38 protein expression in human Jurkat cells at 1 uM measured for 3 hrs; type: functional, cell-based
MCF7 = assay: Cytotoxicity against human MCF7 cells assessed as reduction in cell viability incubated for 24 hrs by CCK-8 assay; type: functional, cell-based; details: MCF7, 24 h
4T1 = assay: Cytotoxicity against mouse 4T1 cells assessed as reduction in cell viability incubated for 24 hrs by CCK-8 assay; type: functional, cell-based; details: 4T1, 24 h
[17] = biological target: T1, Phosphatidylinositol 4,5-bisphosphate 3-kinase catalytic subunit delta isoform (Homo sapiens) (UniProt O00329); assay: Antagonist activity at PI3Kdelta (unknown origin) assessed as inhibition rate at 20 nM using PIP2 as substrate in presence of ATP incubated for 30 to 60 mins by ADP-glo based luminescence assay relative to control; details: time 30-60 min
T1 sequence (whole entry): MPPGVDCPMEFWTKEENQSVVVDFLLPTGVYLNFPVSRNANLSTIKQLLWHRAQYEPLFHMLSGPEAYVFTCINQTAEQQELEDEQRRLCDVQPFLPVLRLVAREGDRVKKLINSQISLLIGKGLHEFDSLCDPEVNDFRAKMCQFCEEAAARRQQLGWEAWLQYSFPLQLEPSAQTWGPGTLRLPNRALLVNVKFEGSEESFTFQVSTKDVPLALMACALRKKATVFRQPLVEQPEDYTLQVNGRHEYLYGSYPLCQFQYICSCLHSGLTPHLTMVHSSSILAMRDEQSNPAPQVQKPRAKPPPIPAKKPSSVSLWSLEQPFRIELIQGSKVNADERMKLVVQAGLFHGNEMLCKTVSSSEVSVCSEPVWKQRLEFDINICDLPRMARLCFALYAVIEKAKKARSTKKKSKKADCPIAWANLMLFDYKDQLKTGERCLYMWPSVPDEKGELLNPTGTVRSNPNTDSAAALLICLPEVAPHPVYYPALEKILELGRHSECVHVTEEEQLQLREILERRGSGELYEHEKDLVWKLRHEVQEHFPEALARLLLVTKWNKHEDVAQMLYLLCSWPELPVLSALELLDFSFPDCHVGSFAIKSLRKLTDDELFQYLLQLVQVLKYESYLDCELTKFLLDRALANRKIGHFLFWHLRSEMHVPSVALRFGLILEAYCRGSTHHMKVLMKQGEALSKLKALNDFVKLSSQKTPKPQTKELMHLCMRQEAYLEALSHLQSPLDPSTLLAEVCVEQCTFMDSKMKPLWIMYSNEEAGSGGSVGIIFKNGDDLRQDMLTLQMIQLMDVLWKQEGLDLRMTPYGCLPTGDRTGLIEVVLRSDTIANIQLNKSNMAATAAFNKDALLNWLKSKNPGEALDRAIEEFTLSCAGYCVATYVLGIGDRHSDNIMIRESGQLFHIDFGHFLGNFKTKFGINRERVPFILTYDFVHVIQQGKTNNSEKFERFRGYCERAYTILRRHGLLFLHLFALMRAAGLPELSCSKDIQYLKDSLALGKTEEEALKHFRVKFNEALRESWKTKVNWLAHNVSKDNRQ

A549 = assay: Cytotoxicity against human A549 cells assessed as reduction in cell viability incubated for 24 hrs by CCK-8 assay; type: functional, cell-based; details: A549, 24 h
Jurkat [18] = assay: Induction of apoptosis against human Jurkat cells assessed as early apoptotic cells at 0.1 uM measured for 24 hrs by Annexin V-FITC/propidium iodide staining based flow cytometry (reference value: 5.76%); type: functional
Jurkat [19] = assay: Downregulation of phosphorylated AKT protein expression in human Jurkat cells measured for 3 hrs; type: functional, cell-based; details: dose 0.1-10 µM
THP-1 [20] = assay: Induction of apoptosis against human THP-1 cells assessed as viable cells at 10 uM measured for 24 hrs by Annexin V-FITC/propidium iodide staining based flow cytometry (reference value: 85.6%); type: functional; details: read-out: Activity

In the case of COc1ccc(C#Cc2cccc3cc(C(C)Nc4ncnc5[nH]cnc45)n(-c4ccccc4)c(=O)c23)cc1 (stereo not given), the Activity (Jurkat [1]) is reported as 0.047%, the Activity (Jurkat [2]) is reported as “Active” and the Activity (Jurkat [3]) is reported as 0.025%. The Activity (Jurkat [4]) was 0.042%, the Activity (Jurkat [5]) was “Dose-Dependent Effect” and the Activity (THP-1 [6]) was 0.041%. The Activity (THP-1 [7]) was 24.6%, the IC50 (THP-1 [8]) was 7.47 µM and the viability at 0.1 µM (THP-1 [9]) was 66.8%. The Activity (THP-1 [10]) was 0.125%, the inhibition (RAW264.7) was “Dose-Dependent Effect” and the viability at 0.1 µM (Jurkat [11]) was 66.8%. For the same molecule, the inhibition [12] was “Dose-Dependent Effect”, the IC50 [13] was 0.109 µM and the IC50 (T47D) was over 100 µM. The IC50 (Jurkat [14]) was 2.41 µM, the Activity (THP-1 [15]) was 0.053% and the Activity (Jurkat [16]) was “Active”. For the same molecule, the IC50 (MCF7) was over 100 µM, the IC50 (4T1) was 9.76 µM and the inhibition [17] was 16%. The IC50 (A549) was over 100 µM, the Activity (Jurkat [18]) was 10.9% and the Activity (Jurkat [19]) was “Dose-Dependent Effect”. It also gave a viability at 10 µM (THP-1 [20]) of 60.7%.
